Measured values published in patent US9415055B2, “Cyclic amines” (H. Lundbeck A/S, priority 2012, dated 2016).

Target: P2X7 receptor (Homo sapiens (Human), UniProt Q99572)
Experiment: P2X7 FLIPR assay: antagonism of BzATP response in 293 HEK cells stably expressing P2X7 receptor
Assay type: cell-based
Details: FLIPR fluorescence (Fluo-4), agonist BzATP, 293 HEK cells stably transfected with P2X7 receptor
Protocol: Cells were plated to cell density of approximately 15,000 cells/well in 384-well assay plates (50 μl/well) with 1.5% low serum media (DMEM, 1.5% BCS, 1% L-glut (2 mM), 1% P/S).
Cells were plated to cell density of approximately 15,000 cells/well in 384-well assay plates (50 μl/well) with 1.5% low serum media (DMEM, 1.5% FBS, 1% L-glut (2 mM), 10 mM HEPES, 1% P/S). Cells were plated 24 hours prior to assay. Cells expressing human, rat or mouse P2X7 receptor were assayed in the following manner.
Fluo-4 NW dye mix (Molecular Probes, Inc., Eugene, Oreg., USA) was prepared in buffer (see manufacturer's instructions). Cell plates were removed from the 37° C. incubator, the media discarded and then 30 μL of dye was added to each well. Plates were placed in the 37° C., non-CO2 incubator for 30 minutes and then room temperature for 30 minutes.
Compound mixtures (A) were added to assay plates containing cells and placed at room temperature for 30 minutes, then BzATP (B) was added. Fluorescence was read using the Tetra FLIPR® (Molecular Devices, Inc., Sunnyvale, Calif., USA) and IC50 values were calculated by standard methods to determine antagonist activity.

Chain of P2X7 receptor (Q99572 whole entry): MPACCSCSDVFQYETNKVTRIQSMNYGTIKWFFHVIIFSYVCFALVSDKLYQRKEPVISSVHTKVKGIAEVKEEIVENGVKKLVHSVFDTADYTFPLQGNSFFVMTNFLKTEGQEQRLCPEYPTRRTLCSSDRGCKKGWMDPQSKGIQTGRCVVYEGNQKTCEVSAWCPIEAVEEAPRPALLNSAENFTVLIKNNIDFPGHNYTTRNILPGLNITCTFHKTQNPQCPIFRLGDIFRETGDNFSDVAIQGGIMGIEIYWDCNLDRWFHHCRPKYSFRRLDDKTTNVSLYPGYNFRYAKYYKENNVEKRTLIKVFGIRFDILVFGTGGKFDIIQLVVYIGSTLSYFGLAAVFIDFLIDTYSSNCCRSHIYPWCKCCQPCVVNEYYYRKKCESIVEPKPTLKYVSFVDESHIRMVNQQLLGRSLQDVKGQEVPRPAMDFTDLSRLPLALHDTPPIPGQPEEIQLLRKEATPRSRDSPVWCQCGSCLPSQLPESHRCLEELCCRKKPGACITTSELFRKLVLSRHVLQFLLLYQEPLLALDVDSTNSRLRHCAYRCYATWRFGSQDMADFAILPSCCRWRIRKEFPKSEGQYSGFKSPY

SMILES | IC50
O=C(NCC(c1cnc(C(F)(F)F)nc1)N1CCC(F)(F)CC1)c1c(Cl)cc(F)cc1Cl (single isomer, unassigned; (+)) [(+)2,6-dichloro-N-[2-(4,4-difluoro-1-piperidyl)-2-[2-(triflu] [(+)2,6-dichloro-4-fluoro-N-(2-(4,4-difluoropiperidin-1-yl)-2-(2-(trifluoromethyl)pyrimidin-5-yl)ethyl)benzamide] | 7.5 nM
O=C(NCC(c1cnc(C(F)(F)F)nc1)N1CCC(F)(F)CC1)c1c(Cl)ccc(F)c1Cl (single isomer, unassigned; (+)) [(+)2,6-dichloro-N-[2-(4,4-difluoro-1-piperidyl)-2-[2-(triflu] [(+)2,6-dichloro-5-fluoro-N-(2-(4,4-difluoropiperidin-1-yl)-2-(2-(trifluoromethyl)pyrimidin-5-yl)ethyl)benzamide] | 7.1 nM
O=C(NCC(c1cnc(C(F)(F)F)nc1)N1CCC(F)(F)CC1)c1c(Cl)cccc1Cl (single isomer, unassigned; (+)) [(+)2,6-dichloro-N-[2-(4,4-difluoro-1-piperidyl)-2-[2-(triflu] [(+)2,6-dichloro-N-(2-(4,4-difluoropiperidin-1-yl)-2-(2-(trifluoromethyl)pyrimidin-5-yl)ethyl)benzamide] | 4.7 nM
Cc1ncc(C(CNC(=O)c2c(Cl)cccc2Cl)N2CCC(F)CC2)cn1 (single isomer, unassigned; (+)) [(+)2,6-dichloro-N-[2-(4-fluoro-1-piperidyl)-2-(2-methylpyrim] [(+)2,6-dichloro-N-(2-(4-fluoropiperidin-1-yl)-2-(2-methylpyrimidin-5-yl)ethyl)benzamide] | 9.6 nM
O=C(NCC(c1cnc(C(F)(F)F)nc1)N1CCC(F)CC1)c1c(Cl)cccc1Cl (single isomer, unassigned; (+)) [(+)2,6-dichloro-N-[2-(4-fluoro-1-piperidyl)-2-[2-(trifluorom] [(+)2,6-dichloro-N-(2-(4-fluoropiperidin-1-yl)-2-(2-(trifluoromethyl)pyrimidin-5-yl)ethyl)benzamide] | 6.1 nM
O=C(NCC(c1ccc(C(F)F)nc1)N1CCC(F)(F)CC1)c1c(Cl)cccc1Cl (single isomer, unassigned; (+)) [(+)2,6-dichloro-N-[2-[6-(difluoromethyl)-3-pyridyl]-2-(4,4-d] [(+)2,6-dichloro-N-(2-(2-(difluoromethyl)pyridin-5-yl)-2-(4,4-difluoropiperidin-1-yl)ethyl)benzamide] | 8.7 nM
O=C(NCC(c1ccc(C(F)(F)F)nc1)N1CCOCC1)c1c(F)cccc1F (single isomer, unassigned; (+)) [(+)2,6-difluoro-N-[2-morpholino-2-[6-(trifluoromethyl)-3-pyr] [(+)2,6-Difluoro-N-[2-morpholino-2-[6-(trifluoromethyl)-3-pyridyl]ethyl]benzamide] | 29 nM
Cc1ncc(C(CNC(=O)c2cccc(OC(F)F)c2Cl)N2CCC(F)(F)CC2)cn1 (single isomer, unassigned; (+)) [(+)2-chloro-3-(difluoromethoxy)-N-[2-(4,4-difluoro-1-piperid] [(+)2-chloro-3-(difluoromethoxy)-N-(2-(4,4-difluoropiperidin-1-yl)-2-(2-methylpyrimidin-5-yl)ethyl)benzamide] | 7 nM
COc1cccc(C(=O)NCC(c2cnc(C(F)(F)F)nc2)N2CCOCC2)c1Cl (single isomer, unassigned; (+)) [(+)2-chloro-3-methoxy-N-[2-morpholino-2-[2-(trifluoromethyl)] [(+)2-chloro-3-methoxy-N-(2-morpholino-2-(2-(trifluoromethyl)pyrimidin-5-yl)ethyl)benzamide] | 16 nM
O=C(NCC(c1ccc(C(F)(F)F)nc1)N1CCC(F)(F)CC1)c1c(F)cccc1Cl (single isomer, unassigned; (+)) [(+)2-chloro-6-fluoro-N-(2-(4,4-difluoropiperidin-1-yl)-2-(2-(trifluoromethyl)pyridin-5-yl)ethyl)benzamide] | 0.62 nM

Results, then the compound that gave them:

IC50 | SMILES
71 nM | CS(=O)(=O)c1ccc(Cl)c(C(=O)NCC(c2ccc(C(F)(F)F)nc2)N2CCOCC2)c1 (single isomer, unassigned; (+)) [(+)2-chloro-5-methylsulfonyl-N-[2-morpholino-2-[6-(trifluoro] [(+)2-chloro-5-(methylsulfonyl)-N-(2-morpholino-2-(6-(trifluoromethyl)pyridin-3-yl)ethyl)benzamide]
32 nM | O=C(NCC(c1ccc(C(F)(F)F)nc1)N1CCOCC1)c1c(F)cccc1Cl (single isomer, unassigned; (+)) [(+)2-chloro-6-fluoro-N-[2-morpholino-2-[6-(trifluoromethyl)-] [(+)2-chloro-6-fluoro-N-(2-morpholino-2-(6-(trifluoromethyl)pyridin-3-yl)ethyl)benzamide]
9.9 nM | O=C(NCC(c1cnc(C2CC2)nc1)N1CCC(F)(F)CC1)c1c(F)cccc1Cl (single isomer, unassigned; (+)) [(+)2-chloro-N-[2-(2-cyclopropylpyrimidin-5-yl)-2-(4,4-difluo] [(+)2-chloro-6-fluoro-N-(2-(2-cyclopropylpyrimidin-5-yl)-2-(4,4-difluoropiperidin-1-yl)ethyl)benzamide]
3 nM | O=C(NCC(c1cnc(C2CC2)nc1)N1CCC(F)(F)CC1)c1ccccc1Cl (single isomer, unassigned; (+)) [(+)2-chloro-N-[2-(2-cyclopropylpyrimidin-5-yl)-2-(4,4-difluo] [(+)2-chloro-N-(2-(2-cyclopropylpyrimidin-5-yl)-2-(4,4-difluoropiperidin-1-yl)ethyl)benzamide]
59 nM | Cc1ncc(C(CNC(=O)c2ccccc2Cl)N2CCCCC2)cn1 (single isomer, unassigned; (+)) [(+)2-chloro-N-[2-(2-methylpyrimidin-5-yl)-2-(1-piperidyl)eth] [(+)2-chloro-N-(2-(2-methylpyrimidin-5-yl)-2-(piperidin-1-yl)ethyl)benzamide]
630 nM | Cc1ncc(C(CNC(=O)c2ccccc2Cl)N2CCOCC2)cn1 (single isomer, unassigned; (+)) [(+)2-chloro-N-[2-(2-methylpyrimidin-5-yl)-2-morpholino-ethyl] [(+)2-chloro-N-(2-(2-methylpyrimidin-5-yl)-2-morpholinoethyl)benzamide]
100 nM | Cc1ncc(C(CNC(=O)c2cccc(F)c2Cl)N2CCCC(F)(F)C2)cn1 (single isomer, unassigned; (+)) [(+)2-chloro-N-[2-(3,3-difluoro-1-piperidyl)-2-(2-methylpyrim] [(+)2-chloro-3-fluoro-N-(2-(3,3-difluoropiperidin-1-yl)-2-(2-methylpyrimidin-5-yl)ethyl)benzamide]
53 nM | Cc1ncc(C(CNC(=O)c2c(F)cccc2Cl)N2CCCC(F)(F)C2)cn1 (single isomer, unassigned; (+)) [(+)2-chloro-N-[2-(3,3-difluoro-1-piperidyl)-2-(2-methylpyrim] [(+)2-chloro-6-fluoro-N-(2-(3,3-difluoropiperidin-1-yl)-2-(2-methylpyrimidin-5-yl)ethyl)benzamide]
85 nM | Cc1ncc(C(CNC(=O)c2ccccc2Cl)N2CCCC(F)(F)C2)cn1 (single isomer, unassigned; (+)) [(+)2-chloro-N-[2-(3,3-difluoro-1-piperidyl)-2-(2-methylpyrim] [(+)2-chloro-N-(2-(3,3-difluoropiperidin-1-yl)-2-(2-methylpyrimidin-5-A)ethyl)benzamide]
180 nM | Cn1cc(C(CNC(=O)c2ccccc2Cl)N2CCC(F)(F)CC2)cn1 (single isomer, unassigned; (+)) [(+)2-chloro-N-[2-(4,4-difluoro-1-piperidyl)-2-(1-methylpyraz] [(+)2-chloro-N-(2-(4,4-difluoropiperidin-1-yl)-2-(1-methyl-1H-pyrazol-4-yl)ethyl)benzamide]
14 nM | CCc1ncc(C(CNC(=O)c2c(F)cccc2Cl)N2CCC(F)(F)CC2)cn1 (single isomer, unassigned; (+)) [(+)2-chloro-N-[2-(4,4-difluoro-1-piperidyl)-2-(2-ethylpyrimi] [(+)2-chloro-6-fluoro-N-(2-(4,4-difluoropiperidin-1-yl)-2-(2-ethylpyrimidin-5-yl)ethyl)benzamide]
12 nM | CCc1ncc(C(CNC(=O)c2ccccc2Cl)N2CCC(F)(F)CC2)cn1 (single isomer, unassigned; (+)) [(+)2-chloro-N-[2-(4,4-difluoro-1-piperidyl)-2-(2-ethylpyrimi] [(+)2-chloro-N-(2-(4,4-difluoropiperidin-1-yl)-2-(2-ethylpyrimidin-5-yl)ethyl)benzamide]
15 nM | Cc1ncc(C(CNC(=O)c2cccc(F)c2Cl)N2CCC(F)(F)CC2)cn1 (single isomer, unassigned; (+)) [(+)2-chloro-N-[2-(4,4-difluoro-1-piperidyl)-2-(2-methylpyrim] [(+)2-chloro-3-fluoro-N-(2-(4,4-difluoropiperidin-1-yl)-2-(2-methylpyrimidin-5-yl)ethyl)benzamide]
12 nM | COc1cccc(C(=O)NCC(c2cnc(C)nc2)N2CCC(F)(F)CC2)c1Cl (single isomer, unassigned; (+)) [(+)2-chloro-N-[2-(4,4-difluoro-1-piperidyl)-2-(2-methylpyrim] [(+)2-chloro-3-methoxy-N-(2-(4,4-difluoropiperidin-1-yl)-2-(2-methylpyrimidin-5-yl)ethyl)benzamide]
